In US11878987B2, “Heterocyclic compound as TRK inhibitor” (Beijing Innocare Pharma Tech Co., Ltd., priority 2018, dated 2024):

Columns and labels:
KM12 cells = assay: KM12 cell proliferation, luminescent cell viability test (CellTiter-Glo); format: cell-based; conditions: Homo sapiens, 96 hours, CTG
Method: Determination of Median Effective Inhibition Concentration GI50 in KM12 Cells
The effect of the compounds of the invention on the proliferation of KM12 cells was evaluated by the luminescent cell viability test.
(§1) The experimental methods were summarized as follows:
CellTilter-Glo (CTG) detection kit was used. A unique and stable luciferase was used to detect ATP, an indicator of viable cell metabolism. The luminescence signal generated in the experiment was proportional to the number of viable cells in the culture medium, thus the proliferation of KM12 cells was detected.
KM12 cell (purchased from Shanghai Xinyu biological Co.) was cultured in IMDM complete medium (Thermo Fisher, 12440053) containing 10% FBS (GBICO, 10099-141) and 100 units/ml of penicillin streptomycin mixture (Thermofisher, 15140122). When the cell coverage rate in the culture container reached 80-90%, 0.25% trypsin (containing EDTA) (Thermofisher, 25200056) was used to digest and disperse the cells, then they were planted in a white 384 well plate (164610). To each well containing 1000 cells was added 27 μL IMDM complete medium. Then the 384 well plate was cultured overnight in an incubator containing 5% CO2 at 37° C. The compound was dissolved into 100% DMSO and diluted to 1 mM, then diluted with DMSO in 4 times serial dilution to the lowest concentration of 0.061 μM. Each concentration point was further diluted 50 times with IMDM medium. If the IC50 value of the compound was very low, the initial concentration of the compound can be reduced. 3 μl Diluted compound was added into each well, centrifuged and mixed well gently. The medium without cells was used as negative control (100% inhibition), and the group with 0.2% DMSO was used as positive control (0% inhibition).
The 384 well plate was placed in the incubator at 37° C. and 5% CO2 for further incubation. After 96 hours, the plate was taken out and placed at room temperature for 30 minutes. […] Then the cold light signal was read by Envision (Perkin Elmer). […]
The percentage of inhibition of KM12 cell proliferation by the compounds can be calculated by the following formula: Inhibition percentage=100−100*{[(Signalcompound−Signalnegative control)−T0control]/[(Signalpositive control−Signalnegative control)−T0control]}
The IC50 values of compounds were calculated by XLfit (ID Business Solutions Ltd., UK) software at 8 concentration points through the following formula: Y=Bottom+(Top−Bottom)/(1+10^((Log IC50−X)*slope factor))
Of which, Y is the inhibition percentage, Bottom is the bottom plateau of the curve (the bottom platform value of S curve), Top is the top plateau of the curve (the top platform value of S curve), X is the logarithm of the concentration of the compound to be measured.

TRKA = TRKA (Homo sapiens, UniProt P04629); assay: TRKA activity inhibition test (HTRF kinase assay); format: biochemical; conditions: humanized recombined TRKA protein, 8.4 μM ATP
Method: TRKA Activity Inhibition Test
The effect of the compounds of the invention on TRKA activity was evaluated by in vitro kinase assays
as §1
The in vitro activity of TRKA was measured by the use of a homogeneous time-resolved fluorescence (HTRF) kinase assay kit (Cisbio, NO. 62TKOPEC) through detecting the phosphorylation level of the substrate in the kinase reaction. The reaction buffer contained the following components: reaction buffer of the enzyme in the kit (1×), 5 mM MgCl2, 1 mM DTT; The humanized recombined TRKA protein was expressed and purified by the purification and identification platform of Tsinghua university, and was diluted into kinase solution (3 ng/μl) with the reaction buffer. The substrate reaction solution comprised 0.23 μM biotin-labeled tyrosine kinase substrate and 8.4 μM ATP, which was diluted with reaction buffer. The detection buffer comprised 0.1 ng/μL cage antibody labelled with Eu3+ and 14.375 nM XL665 labeled with streptavidin, which was diluted with reaction buffer.
The compound was dissolved into 100% DMSO and diluted to 100 or 10 μM, then diluted with DMSO in 4 times serial dilution to a minimum concentration of 6.1 or 0.61 nM, and each concentration point was further diluted 40 times with the reaction buffer.
To the 384 well plate (Corning No. 4512), 4 μl of the solution of the test compound and 2 μl of the solution of TRKA kinase were added respectively, then mixed well and incubated at room temperature for 15 minutes. 4 μl of the solution of substrate was then added and the reaction mixture was incubated at room temperature for 60 minutes. A 10 μl detection buffer of the same volume as the reaction mixture was then added, the mixture was mixed well and allowed to stand for 30 minutes at room temperature. The reaction process was monitored at the wavelengths of 620 nm and 665 nm by Envision board reader (Perkin Elmer). The ratio of 665/620 was positively correlated with the phosphorylation level of the substrate, then TRKA kinase activity was determined. […] The inhibition percentage of the test compound on the TRKA activity can be calculated by the following formula: The IC50 value of the compound was calculated at 8 concentration points by use of XLfit software (ID Business Solutions Ltd. UK) through the following formula: Y=Bottom+(Top−Bottom)/(1+10^((log IC50−X)*slope factor)) Of which Y is the inhibition percentage; X is the logarithm of the concentration of the compound to be tested; Bottom is the […] inhibition percentage; Top is the […] inhibition percentage; slope factor is the slope coefficient of the curve.

TRKA G595R = target: T1, TRKA G595R (Homo sapiens, UniProt P04629, G595R); assay: TRKA G595R activity inhibition test (HTRF kinase assay); format: biochemical; conditions: humanized recombined TRKA G595R protein, 2.9 μM ATP
T1 construct: purchased Signal Chem Life Sciences N16-12BG
Method: TRKA G595R Activity Inhibition Test:
The effect of the compounds of the invention on the activity of TRKA G595R was evaluated by the in vitro kinase assay.
The experimental method was summarized below:
The in vitro activity of TRKA G595R was measured using a HTRF kinase assay kit (Cisbio, No. 62TKOPEC) by detecting the phosphorylation level of the substrate in the kinase reaction. The reaction buffer contained the following components: the reaction buffer of the enzyme in the kit (1×), 5 mM MgCl2, 1 mM DTT. The humanized recombined TRKA G595R protein (No. N16-12BG, purchased from Signal Chem Life Sciences) was diluted into 0.25 ng/kinase solution with the reaction buffer. The substrate reaction solution comprised 0.51 μM biotin-labeled tyrosine kinase substrate and 2.9 μM ATP, which was diluted with reaction buffer. The detection buffer comprised 0.15 ng/μL cage antibody labelled with Eu3+ and 31.875 nM XL665 labeled with streptavidin, which was diluted with reaction buffer.
The compound was dissolved into 100% DMSO and diluted to 1 mM or 100 μM, then diluted with DMSO in 4 times serial dilution to a minimum concentration of 61 or 6.1 nM, and each concentration point was further diluted 40 times with the reaction buffer.
4 μl of solution of the test compound and 2 μl of solution of TRKA G595R kinase were added to the 384 well plate (Corning No. 4512), mixed well and incubated at room temperature for 15 minutes. Then 4 μl of solution of substrate was added and the reaction mixture was incubated at room temperature for 60 minutes. 10 μl of detection buffer of the same volume as the reaction mixture was then added, the reaction mixture was mixed well and allowed to stand for 30 minutes at room temperature. The reaction process was monitored at the wavelength of 620 nm and 665 nm by Envision board reader (Perkin Elmer). The ratio of 665/620 was positively correlated with the phosphorylation level of the substrate, then TRKA G595R kinase activity was determined. In this experiment, the group without TRKA G595R kinase was used as the negative control (100% inhibition), the group with TRKA G595R but without the test compound was used as the positive control (0% inhibition). The inhibition percentage of the test compound on TRKA G595R activity can be calculated by the following formula: Inhibition percentage=100−100*(signal value of the test compound under specific concentration−signal value of the negative control)/(signal value of the positive control−signal value of the negative control) The IC50 value of the test compound was calculated at 8 concentration points by use of XLfit (ID Business Solutions Ltd. UK) software through the following formula: Y=Bottom+(Top−Bottom)/(1+10^((log IC50−X)*slope factor)) […]

TRKA G667C = target: T2, TRKA G667C (Homo sapiens, UniProt P04629, G667C); assay: TRKA G667C activity inhibition test (HTRF kinase assay); format: biochemical; conditions: humanized recombined TRKA G667C protein, 2.7 μM ATP
T2 construct: purchased Signal Chem Life Sciences N16-12 CG
Method: TRKA G667C Activity Inhibition Test:
The effect of the compounds of the invention on the activity of TRKA G667C was evaluated by the in vitro kinase assay.
The experimental methods were summarized below:
The in vitro activity of TRKA G667C was measured using a HTRF kinase assay kit (Cisbio, No. 62TKOPEC) by detecting the phosphorylation level of the substrate in the kinase reaction.
The reaction buffer contained the following components: reaction buffer of the enzyme in the kit (1×), 5 mM MgCl2, 1 mM DTT. The humanized recombined TRKA G667C protein (No. N16-12 CG, Signal Chem Life Sciences) was diluted into 0.09 ng/μl kinase solution with the reaction buffer. […]
4 μl of solution of the test compound and 2 μl of solution of TRKA G667C kinase were added to the 384 well plate (Corning No. 4512), mixed well and incubated at room temperature for 15 minutes. […] The reaction process was monitored at the wavelength of 620 nm and 665 nm by Envision board reader (Perkin Elmer). The ratio of 665/620 was positively correlated with the phosphorylation level of the substrate, then TRKA G667C kinase activity was determined. […]
The IC50 value of the compound was calculated at 8 concentration points by XLfit (ID Business Solutions Ltd. UK) software through the following formula: Y=Bottom+(Top−Bottom)/(1+10^((log IC50−X)*slope factor)) […]

[1] = early clinical trials, cited from earlier work

T1 sequence (P04629 33-796 G595R): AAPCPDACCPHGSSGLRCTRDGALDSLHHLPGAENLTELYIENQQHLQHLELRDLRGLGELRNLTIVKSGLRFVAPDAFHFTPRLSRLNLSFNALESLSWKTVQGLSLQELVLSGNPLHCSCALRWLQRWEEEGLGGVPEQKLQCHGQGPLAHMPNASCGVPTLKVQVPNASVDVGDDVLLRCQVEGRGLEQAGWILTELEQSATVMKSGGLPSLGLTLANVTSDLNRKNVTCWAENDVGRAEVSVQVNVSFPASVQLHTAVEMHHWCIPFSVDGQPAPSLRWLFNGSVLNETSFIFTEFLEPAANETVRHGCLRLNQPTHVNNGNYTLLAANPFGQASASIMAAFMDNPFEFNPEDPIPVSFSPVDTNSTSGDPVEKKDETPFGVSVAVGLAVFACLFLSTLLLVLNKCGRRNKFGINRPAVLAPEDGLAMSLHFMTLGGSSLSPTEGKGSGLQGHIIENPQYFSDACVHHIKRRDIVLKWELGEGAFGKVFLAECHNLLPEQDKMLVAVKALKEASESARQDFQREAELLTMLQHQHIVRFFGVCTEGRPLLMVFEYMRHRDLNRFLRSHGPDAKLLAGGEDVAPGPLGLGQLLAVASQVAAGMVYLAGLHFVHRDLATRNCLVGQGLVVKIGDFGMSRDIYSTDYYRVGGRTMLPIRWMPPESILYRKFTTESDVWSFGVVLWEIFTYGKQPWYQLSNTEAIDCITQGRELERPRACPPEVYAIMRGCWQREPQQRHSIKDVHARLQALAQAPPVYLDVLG
Sequence of TRKA (P04629 33-796): as the sequence (P04629 33-796 G595R) above, with R563G counted along it
T2 sequence (P04629 33-796 G667C): as the sequence (P04629 33-796 G595R) above, with R563G, G635C counted along it

| SMILES | GI50 (KM12 cells) | IC50 (TRKA) | IC50 (TRKA G595R) | IC50 (TRKA G667C) | patients in complete remission ([1]; 6 patients, no tumor detectable by existing methods) | patients who achieved objective responses ([1]; 38 patients) | patients in remission for more than a year [1] |
| --- | --- | --- | --- | --- | --- | --- | --- |
| C[C@H]1CCNC(=O)Nc2cnn3ccc(nc23)N2CCC[C@@H]2c2cc(F)cnc2O1 [Compound 4, (2^2R,5S)-3^5-fluoro-5-methyl-4-oxa-8,10-diaza-1(5,3)-pyrazolo[1,5-a]pyrimidin-3(3,2)-pyridin-2(1,2)-pyrrolidincyclodecan-9-one] | 2.26 nM | 1.08 nM | 1.4 nM |  |  |  |  |
| C[C@H]1CNC(=O)Nc2cnn3ccc(nc23)N2C[C@@H](F)C[C@@H]2c2cc(F)cnc2O1 [Compound 1, (2^2R,2^4S,5S)-2^4,3^5-difluoro-5-methyl-4-oxa-7,9-diaza-1(5,3)-pyrazolo[1,5-a]pyrimidin-3(3,2)-pyridin-2(1,2)-pyrrolidincyclononan-8-one] | 0.43 nM | 0.24 nM | 0.26 nM | 1.63 nM |  |  |  |
| O=C(Nc1cnn2ccc(N3CCC[C@@H]3c3cc(F)ccc3F)nc12)N1CC[C@H](O)C1 [larotrectinib] |  |  |  |  | 12% | 76% | 30 patients |
| O=C1NCCOc2ncc(F)cc2[C@H]2C[C@H](F)CN2c2ccn3ncc(c3n2)N1 [Compound 2, (2^2R,2^4S)-2^4,3^5-difluoro-4-oxa-7,9-diaza-1(5,3)-pyrazolo[1,5-a]pyrimidin-3(3,2)-pyridin-2(1,2)-pyrrolidincyclononan-8-one] | 3.12 nM | 0.97 nM | 12.2 nM | 16.3 nM |  |  |  |
| CN1CCOc2ncc(F)cc2[C@H]2C[C@H](F)CN2c2ccn3ncc(c3n2)NC1=O [Compound 3, (2^2R,2^4S)-2^4,3^5-difluoro-7-methyl-4-oxa-7,9-diaza-1(5,3)-pyrazolo[1,5-a]pyrimidin-3(3,2)-pyridin-2(1,2)-pyrrolidincyclononan-8-one] | 33.7 nM | 1.46 nM | 10.2 nM |  |  |  |  |
